Source: PubChem BioAssay AID2060907 (Molecular Pharmacology Branch, DTP, NCI, 2025)

Test system: 388556-164-R-J1-PDC complex spheroid viability
Test: Anticancer human tumor 388556-164-R-J1-PDC patient-derived colon adenocarcinoma cell line growth inhibition [RAS]
Settings: for viability, T/C: stronger effect = lower value
In short: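 Multi-cell-type spheroids: tumor cells plus HUVEC endothelial cells and mesenchymal stem cells. RAS-pathway inhibitors were combined with targeted agents, each dosed in half-log steps down from clinical Cmax, or from 10 microM when Cmax was unknown.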

[1] = curve of first compound, second compound 0.000949 µM
[2] = curve of first compound, second compound 0.003 µM
[3] = curve of first compound, second compound 0.00949 µM
[4] = curve of first compound, second compound 0.03 µM
[5] = curve of first compound, second compound 0.0949 µM
[6] = curve of first compound, second compound 0.3 µM
[7] = second compound 0.000949 µM, first compound 0.0316 µM
[8] = second compound 0.000949 µM, first compound 0.1 µM
[9] = second compound 0.000949 µM, first compound 0.316 µM
[10] = second compound 0.000949 µM, first compound 1 µM
[11] = second compound 0.000949 µM, first compound 3.16 µM
[12] = second compound 0.000949 µM, first compound 10 µM
[13] = second compound 0.003 µM, first compound 0.0316 µM
[14] = second compound 0.003 µM, first compound 0.1 µM
[15] = second compound 0.003 µM, first compound 0.316 µM
[16] = second compound 0.003 µM, first compound 1 µM
[17] = second compound 0.003 µM, first compound 3.16 µM
[18] = second compound 0.003 µM, first compound 10 µM
[19] = second compound 0.00949 µM, first compound 0.0316 µM
[20] = second compound 0.00949 µM, first compound 0.1 µM
[21] = second compound 0.00949 µM, first compound 0.316 µM
[22] = second compound 0.00949 µM, first compound 1 µM
[23] = second compound 0.00949 µM, first compound 3.16 µM
[24] = second compound 0.00949 µM, first compound 10 µM
[25] = second compound 0.03 µM, first compound 0.0316 µM
[26] = second compound 0.03 µM, first compound 0.1 µM
[27] = second compound 0.03 µM, first compound 0.316 µM
[28] = second compound 0.03 µM, first compound 1 µM
[29] = second compound 0.03 µM, first compound 3.16 µM
[30] = second compound 0.03 µM, first compound 10 µM
[31] = second compound 0.0949 µM, first compound 0.0316 µM
[32] = second compound 0.0949 µM, first compound 0.1 µM
[33] = second compound 0.0949 µM, first compound 0.316 µM
[34] = second compound 0.0949 µM, first compound 1 µM
[35] = second compound 0.0949 µM, first compound 3.16 µM
[36] = second compound 0.0949 µM, first compound 10 µM
[37] = second compound 0.3 µM, first compound 0.0316 µM
[38] = second compound 0.3 µM, first compound 0.1 µM
[39] = second compound 0.3 µM, first compound 0.316 µM
[40] = second compound 0.3 µM, first compound 1 µM
[41] = second compound 0.3 µM, first compound 3.16 µM
[42] = second compound 0.3 µM, first compound 10 µM
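Note: spheroids exposed to compound for 7 days before readout.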
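Throughout, for viability, T/C: 100% = DMSO vehicle control luminescence.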

`Cc1nc(N2CCC3(CC2)COC(C)C3N)c(CO)nc1Sc1ccnc(N)c1Cl` (configuration not stated) + CCn1c(-c2cccnc2C(C)OC)c2c3cc(ccc31)N1CCOC(CC(NC(=O)C(C(C)C)N(C)C(=O)C3(F)CCN(C(=O)C#CC(C)(C)N(C)C)CC3)C(=O)N3CCCC(N3)C(=O)OCC(C)(C)C2)C1 showed an IC50 [1] of over 10000 nM, an IC50 [2] of 5690 nM and an IC50 [3] of 4810 nM. The IC50 [4] was 5740 nM, the IC50 [5] was 3950 nM and the IC50 [6] was 2340 nM. It also gave a viability, T/C [7] of 97.1%, a viability, T/C [8] of 95.6% and a viability, T/C [9] of 77.4%. For the same molecule, the viability, T/C [10] was 55.2%, the viability, T/C [11] was 56% and the viability, T/C [12] was 47.1%. For the same molecule, the viability, T/C [13] was 108%, the viability, T/C [14] was 93.9% and the viability, T/C [15] was 76.7%. The viability, T/C [16] was 66.4%, the viability, T/C [17] was 56% and the viability, T/C [18] was 44.6%. For the same molecule, the viability, T/C [19] was 91.5%, the viability, T/C [20] was 99.9% and the viability, T/C [21] was 82.9%. It also gave a viability, T/C [22] of 61.7%, a viability, T/C [23] of 57.3% and a viability, T/C [24] of 43.7%. For the same molecule, the viability, T/C [25] was 105%, the viability, T/C [26] was 98.7% and the viability, T/C [27] was 75.6%. For the same molecule, the viability, T/C [28] was 63.4%, the viability, T/C [29] was 56.4% and the viability, T/C [30] was 45.1%. It also gave a viability, T/C [31] of 90.1%, a viability, T/C [32] of 95% and a viability, T/C [33] of 75%. The viability, T/C [34] was 62.8%, the viability, T/C [35] was 56% and the viability, T/C [36] was 40.5%. It also gave a viability, T/C [37] of 92.5%, a viability, T/C [38] of 86.7% and a viability, T/C [39] of 65.2%. For the same molecule, the viability, T/C [40] was 55.6%, the viability, T/C [41] was 52.4% and the viability, T/C [42] was 40.1%.

`Cc1nc(N2CCC3(CC2)COC(C)C3N)c(CO)nc1Sc1ccnc(N)c1Cl` (configuration not stated) + CCn1c(-c2cc(N3CCN(C)CC3)cnc2C(C)OC)c2c3cc(ccc31)-c1csc(n1)CC(NC(=O)C1CC1C)C(=O)N1CCCC(N1)C(=O)OCC(C)(C)C2 showed an IC50 [1] of 774 nM, an IC50 [2] of 694 nM and an IC50 [3] of 233 nM. It also gave an IC50 [4] of 67.6 nM, an IC50 [5] of under 31.6 nM and an IC50 [6] of under 31.6 nM. The viability, T/C [7] was 84.3%, the viability, T/C [8] was 83.6% and the viability, T/C [9] was 60.2%. For the same molecule, the viability, T/C [10] was 47.5%, the viability, T/C [11] was 43.1% and the viability, T/C [12] was 34.3%. It also gave a viability, T/C [13] of 81.2%, a viability, T/C [14] of 70.3% and a viability, T/C [15] of 57.7%. The viability, T/C [16] was 45.8%, the viability, T/C [17] was 39.2% and the viability, T/C [18] was 32.8%. For the same molecule, the viability, T/C [19] was 68.7%, the viability, T/C [20] was 53.4% and the viability, T/C [21] was 52.5%. For the same molecule, the viability, T/C [22] was 36.6%, the viability, T/C [23] was 35.1% and the viability, T/C [24] was 29.7%. It also gave a viability, T/C [25] of 56.7%, a viability, T/C [26] of 45.6% and a viability, T/C [27] of 39.2%. For the same molecule, the viability, T/C [28] was 33.4%, the viability, T/C [29] was 29.9% and the viability, T/C [30] was 23.5%. It also gave a viability, T/C [31] of 40.6%, a viability, T/C [32] of 37.2% and a viability, T/C [33] of 30.9%. The viability, T/C [34] was 26.3%, the viability, T/C [35] was 25.9% and the viability, T/C [36] was 22.8%. The viability, T/C [37] was 28.8%, the viability, T/C [38] was 30.6% and the viability, T/C [39] was 25.4%. The viability, T/C [40] was 25.7%, the viability, T/C [41] was 24% and the viability, T/C [42] was 20%.

In the case of `O=C(c1ccc(F)c(F)c1Nc1ccc(I)cc1F)N1CC(O)([C@@H]2CCCCN2)C1`, the viability, T/C (compound 0.01 µM) is reported as 93.1% [middle of 4 runs], the viability, T/C (compound 0.0316 µM) is reported as 82.8% [middle of 4 runs] and the viability, T/C (compound 0.1 µM) is reported as 56.3% [middle of 4 runs]. For the same molecule, the viability, T/C (compound 0.316 µM) was 40.9% [middle of 4 runs], the viability, T/C (compound 1 µM) was 22.8% [middle of 4 runs] and the IC50 (curve of compound) was 164 nM [middle of 4 runs].

In the case of `CC(C)n1nc(-c2ccc3oc(N)nc3c2)c2c(N)ncnc21` + C#Cc1c(F)ccc2cc(O)cc(-c3ncc4c(N5CC6CCC(C5)N6)nc(OCC56CCCN5CC(F)C6)nc4c3F)c12, the IC50 (curve of first compound, second compound 0.0316 µM) is reported as 98.5 nM, the IC50 (curve of first compound, second compound 0.1 µM) is reported as 78.5 nM and the IC50 (curve of first compound, second compound 0.316 µM) is reported as 48.7 nM. It also gave an IC50 (curve of first compound, second compound 1 µM) of 41.6 nM, an IC50 (curve of first compound, second compound 3.16 µM) of 39.2 nM and an IC50 (curve of first compound, second compound 10 µM) of 10.6 nM. For the same molecule, the viability, T/C (second compound 0.0316 µM, first compound 0.000316 µM) was 98.6%, the viability, T/C (second compound 0.0316 µM, first compound 0.001 µM) was 97.7% and the viability, T/C (second compound 0.0316 µM, first compound 0.00316 µM) was 89.9%. The viability, T/C (second compound 0.0316 µM, first compound 0.01 µM) was 75.7%, the viability, T/C (second compound 0.0316 µM, first compound 0.0316 µM) was 64% and the viability, T/C (second compound 0.0316 µM, first compound 0.1 µM) was 49.4%. It also gave a viability, T/C (second compound 0.1 µM, first compound 0.000316 µM) of 95.7%, a viability, T/C (second compound 0.1 µM, first compound 0.001 µM) of 99.7% and a viability, T/C (second compound 0.1 µM, first compound 0.00316 µM) of 90.6%. The viability, T/C (second compound 0.1 µM, first compound 0.01 µM) was 78.5%, the viability, T/C (second compound 0.1 µM, first compound 0.0316 µM) was 62.6% and the viability, T/C (second compound 0.1 µM, first compound 0.1 µM) was 46.6%. For the same molecule, the viability, T/C (second compound 0.316 µM, first compound 0.000316 µM) was 91.6%, the viability, T/C (second compound 0.316 µM, first compound 0.001 µM) was 97.1% and the viability, T/C (second compound 0.316 µM, first compound 0.00316 µM) was 79.5%. The viability, T/C (second compound 0.316 µM, first compound 0.01 µM) was 79.5%, the viability, T/C (second compound 0.316 µM, first compound 0.0316 µM) was 56% and the viability, T/C (second compound 0.316 µM, first compound 0.1 µM) was 37.8%. It also gave a viability, T/C (second compound 1 µM, first compound 0.000316 µM) of 90.5%, a viability, T/C (second compound 1 µM, first compound 0.001 µM) of 88% and a viability, T/C (second compound 1 µM, first compound 0.00316 µM) of 69.9%. It also gave a viability, T/C (second compound 1 µM, first compound 0.01 µM) of 71.5%, a viability, T/C (second compound 1 µM, first compound 0.0316 µM) of 55.6% and a viability, T/C (second compound 1 µM, first compound 0.1 µM) of 35.5%. For the same molecule, the viability, T/C (second compound 3.16 µM, first compound 0.000316 µM) was 82.2%, the viability, T/C (second compound 3.16 µM, first compound 0.001 µM) was 74.4% and the viability, T/C (second compound 3.16 µM, first compound 0.00316 µM) was 68.5%. For the same molecule, the viability, T/C (second compound 3.16 µM, first compound 0.01 µM) was 73.5%, the viability, T/C (second compound 3.16 µM, first compound 0.0316 µM) was 52.3% and the viability, T/C (second compound 3.16 µM, first compound 0.1 µM) was 31.4%. The viability, T/C (second compound 10 µM, first compound 0.000316 µM) was 74.6%, the viability, T/C (second compound 10 µM, first compound 0.001 µM) was 59.9% and the viability, T/C (second compound 10 µM, first compound 0.00316 µM) was 60.1%. For the same molecule, the viability, T/C (second compound 10 µM, first compound 0.01 µM) was 53.3%, the viability, T/C (second compound 10 µM, first compound 0.0316 µM) was 40.3% and the viability, T/C (second compound 10 µM, first compound 0.1 µM) was 29.9%.
